From patent US20260027104A1, “NOVEL NAPHTHYL AND ISOQUINOLINE SULFONAMIDE DERIVATIVES” (Hoffmann-La Roche Inc., priority 2022, published 2026)
pIC50: −log10 of the molar value.

Biological target: human GPR17 short isoform (Homo sapiens, UniProt Q13304)
Assay: hGPR17 cAMP assay (GPR17 cAMP Assay Protocol, antagonist mode)
Format: cell-based
Settings: CHO-K1 cells stably expressing untagged human GPR17 short isoform; EC80 of agonist MDL29,951; forskolin 15 μM; 30 min, room temperature; TR-FRET cAMP readout
Description: GPR17 cAMP Assay Protocol:
CHO-K1 cells stably expressing vector containing untagged human GPR17 short isoform (Roche) were cultured at 37° C./5% CO2 in DMEM (Dulbecco's Modified Eagle Medium):F-12 (1:1) supplemented with 10% foetal bovine serum and 400 μg/ml Geneticin.
Changes in intracellular cyclic adenosine monophosphate (cAMP) levels were quantified using the Nano-TRF Detection Assay kit (Roche Diagnostics, Cat. No. 05214386001). This assay allows for direct cAMP quantification in a homogeneous solution. cAMP is detected based on time-resolved fluorescence energy transfer (TR-FRET) and competitive binding of ruthenylated cAMP and endogenous cAMP to an anti-cAMP monoclonal antibody labeled with AlexaFluor-700. The Ruthenium complex serves as the FRET donor and transfers energy to AlexaFluor-700. The FRET signal is inversely proportional to the cAMP concentration.
CHO-GPR17S cells were detached with Accutase and resuspended in assay buffer consisting of Hank's Balanced Salt Solution (HBSS), 10 mM HEPES (4-(2-hydroxyethyl) piperazine-1-ethanesulfonic acid solution) and 0.1% bovine serum albumin (pH 7.4). The cells were seeded in black 384-well plates (Corning) at a density of 10′000 cells/20 μl assay buffer until the addition of compounds.
Test antagonist compounds were serially diluted in dimethyl sulfoxide (DMSO) and spotted in 384-well plates. The compounds were then diluted in BSS buffer supplemented with an EC80 concentration of MDL29,951 (3-(2-Carboxy-4,6-dichloroindol-3-yl)propionic acid) (GPR17 agonist) plus 3-Isobutyl-1-methylxanthine (IBMX) (0.5 mM final concentration) and added to the cells at room temperature. Forskolin (15 μM final concentration) was added 5 minutes after the test compounds and the cells were incubated at room temperature for 30 minutes. The assay was stopped by adding cAMP detection mix (containing detergents for cell lysis) for 90 minutes at room temperature.
Cellular cAMP was measured using a Paradigm reader (Molecular Devices). The raw data was used to calculate the FRET signal based on the assay's P-factor as per cAMP kit instructions. The data was normalized to the maximal activity of a reference antagonist and dose response curves were fitted to the percent activity of the test compounds using a sigmoidal dose response model (Genedata Screener).
Results in the hGPR17 cAMP assay are provided for compounds of formula I in Table 1

Chain of human GPR17 short isoform (Q13304 29-367): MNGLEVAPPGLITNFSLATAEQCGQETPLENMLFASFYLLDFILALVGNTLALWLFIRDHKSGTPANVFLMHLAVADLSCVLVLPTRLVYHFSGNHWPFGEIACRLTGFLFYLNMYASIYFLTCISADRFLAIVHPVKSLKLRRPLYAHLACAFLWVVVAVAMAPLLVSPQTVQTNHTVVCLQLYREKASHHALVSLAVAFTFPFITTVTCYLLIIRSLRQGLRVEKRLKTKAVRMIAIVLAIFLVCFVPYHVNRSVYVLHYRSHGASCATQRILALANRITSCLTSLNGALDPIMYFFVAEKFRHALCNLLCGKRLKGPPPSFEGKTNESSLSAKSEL

| pIC50 | SMILES |
| --- | --- |
| 7.49 | O=c1[nH]cc(S(=O)(=O)Nc2cc(F)c(OC(F)F)nc2OC(F)F)c2ccc(Cl)cc12 [Example 27, N-[2,6-bis(difluoromethoxy)-5-fluoro-3-pyridyl]-7-chloro-1-keto-2H-isoquinoline-4-sulfonamide] |
| 6.37 | COc1nc(C2COC2)c(F)cc1NS(=O)(=O)c1cccc2nc(Cl)ccc12 [Example 7, 2-chloro-N-[5-fluoro-2-methoxy-6-(oxetan-3-yl)-3-pyridyl]quinoline-5-sulfonamide] |
| 6.01 | N#CCc1cc(F)c(NS(=O)(=O)c2ccnc3cc(Cl)ccc23)cc1F [Example 53, 7-chloro-N-[4-(cyanomethyl)-2,5-difluoro-phenyl]quinoline-4-sulfonamide] |
| 6.04 | COc1ncc(S(=O)(=O)Nc2cc(F)c(CC#N)cc2F)c2ccc(Cl)cc12 [Example 49, 7-chloro-N-[4-(cyanomethyl)-2,5-difluoro-phenyl]-1-methoxy-isoquinoline-4-sulfonamide] |
| 6.74 | N#CCc1cc(F)c(NS(=O)(=O)c2c[nH]c(=O)c3c(Cl)c(Cl)ccc23)cc1F [Example 38, 7,8-dichloro-N-[4-(cyanomethyl)-2,5-difluoro-phenyl]-1-keto-2H-isoquinoline-4-sulfonamide] |
| 6.81 | COc1nc(OC(F)F)c(F)cc1NS(=O)(=O)c1ccnc2cc(Cl)ccc12 [Example 48, 7-chloro-N-[6-(difluoromethoxy)-5-fluoro-2-methoxy-3-pyridyl]quinoline-4-sulfonamide] |
| 7.32 | COc1nc(OCC(F)F)c(F)cc1NS(=O)(=O)c1cccc2cc(Cl)ccc12 [Example 34, 6-chloro-N-[6-(2,2-difluoroethoxy)-5-fluoro-2-methoxy-3-pyridyl]naphthalene-1-sulfonamide] |
| 6.48 | COc1nc(NS(=O)(=O)c2c[nH]c(=O)c3cc(Cl)ccc23)ncc1OCCF [Example 22, 7-chloro-N-[5-(2-fluoroethoxy)-4-methoxy-pyrimidin-2-yl]-1-keto-2H-isoquinoline-4-sulfonamide] |
| 7.42 | COc1nc(OCC(F)F)c(F)cc1NS(=O)(=O)c1cncc2nc(Cl)ccc12 [Example 50, 2-chloro-N-[6-(2,2-difluoroethoxy)-5-fluoro-2-methoxy-3-pyridyl]-1,7-naphthyridine-5-sulfonamide] |
| 7.06 | N#CCc1cc(F)c(NS(=O)(=O)c2cccc3c(Cl)cccc23)cc1F [Example 17, 5-chloro-N-[4-(cyanomethyl)-2,5-difluoro-phenyl]naphthalene-1-sulfonamide] |
| 7.55 | COc1nc(OCC(F)F)c(F)cc1NS(=O)(=O)c1cccc2nc(Cl)ccc12 [Example 10, 2-chloro-N-[6-(2,2-difluoroethoxy)-5-fluoro-2-methoxy-3-pyridyl]quinoline-5-sulfonamide] |
| 7.30 | COc1nc(NS(=O)(=O)c2c[nH]c(=O)c3cc(Cl)ccc23)c(F)cc1OCC(F)F [Example 25, 7-chloro-N-[5-(2,2-difluoroethoxy)-3-fluoro-6-methoxy-2-pyridyl]-1-oxo-2H-isoquinoline-4-sulfonamide] |
| 7.46 | CNc1ncc(S(=O)(=O)Nc2cc(F)c(OCC(F)F)nc2OC)c2ccc(Cl)cc12 [Example 43, 7-chloro-N-[6-(2,2-difluoroethoxy)-5-fluoro-2-methoxy-3-pyridyl]-1-(methylamino)isoquinoline-4-sulfonamide] |
| 7.96 | COc1nc(OCC(F)F)c(F)cc1NS(=O)(=O)c1cccc2nc(C)ccc12 [Example 33, N-[6-(2,2-difluoroethoxy)-5-fluoro-2-methoxy-3-pyridyl]-2-methyl-quinoline-5-sulfonamide] |
| 7.19 | COc1nc(OCC(F)F)c(F)cc1NS(=O)(=O)c1cccc2nc(N(C)C)ccc12 [Example 31, N-[6-(2,2-difluoroethoxy)-5-fluoro-2-methoxy-3-pyridyl]-2-(dimethylamino)quinoline-5-sulfonamide] |
| 6.61 | COc1nc(OCC(F)F)c(F)cc1NS(=O)(=O)c1cc(=O)n(C)c2cc(Cl)ccc12 [Example 37, 7-chloro-N-[6-(2,2-difluoroethoxy)-5-fluoro-2-methoxy-3-pyridyl]-2-keto-1-methyl-quinoline-4-sulfonamide] |
| 6.60 | COc1nc(OCC(F)F)c(F)cc1NS(=O)(=O)c1cncc2c(C#N)c(Cl)ccc12 [Example 46, 7-chloro-8-cyano-N-[6-(2,2-difluoroethoxy)-5-fluoro-2-methoxy-3-pyridyl]isoquinoline-4-sulfonamide] |

| pIC50 | SMILES |
| --- | --- |
| 7.37 | COc1nc(OCC(F)F)c(F)cc1NS(=O)(=O)c1cccc2c(Cl)cccc12 [Example 18, 5-chloro-N-[6-(2,2-difluoroethoxy)-5-fluoro-2-methoxy-3-pyridyl]naphthalene-1-sulfonamide] |
| 7.14 | CNc1cc(S(=O)(=O)Nc2cc(F)c(OCC(F)F)nc2OC)c2ccc(Cl)cc2n1 [Example 45, 7-chloro-N-[6-(2,2-difluoroethoxy)-5-fluoro-2-methoxy-3-pyridyl]-2-(methylamino)quinoline-4-sulfonamide] |
| 6.23 | N#CCc1cc(F)c(NS(=O)(=O)c2c[nH]c(=O)c3ccccc23)cc1F [Example 52, N-(4-(cyanomethyl)-2,5-difluorophenyl)-1-oxo-1,2-dihydroisoquinoline-4-sulfonamide] |
| 8.15 | COc1nc(OCC(F)F)c(F)cc1NS(=O)(=O)c1c[nH]c(=O)c2c(Cl)c(Cl)ccc12 [Example 39, 7,8-dichloro-N-[6-(2,2-difluoroethoxy)-5-fluoro-2-methoxy-3-pyridyl]-1-keto-2H-isoquinoline-4-sulfonamide] |
| 6.02 | N#CCc1cc(F)c(NS(=O)(=O)c2c[nH]c(=O)c3nc(Cl)ccc23)cc1F [Example 28, 2-chloro-N-[4-(cyanomethyl)-2,5-difluoro-phenyl]-8-oxo-7H-1,7-naphthyridine-5-sulfonamide] |
| 7.72 | COc1nc(CC#N)c(F)cc1NS(=O)(=O)c1cccc2nc(Cl)ccc12 [Example 5, 2-chloro-N-[6-(cyanomethyl)-5-fluoro-2-methoxy-3-pyridyl]quinoline-5-sulfonamide] |
| 7.05 | COc1nc(OCC(F)F)c(F)cc1NS(=O)(=O)c1cccc2ccc(Cl)cc12 [Example 19, 7-chloro-N-[6-(2,2-difluoroethoxy)-5-fluoro-2-methoxy-3-pyridyl]naphthalene-1-sulfonamide] |
| 6.50 | CNc1ncc(S(=O)(=O)Nc2cc(F)c(CC#N)cc2F)c2ccc(Cl)cc12 [Example 44, 7-chloro-N-[4-(cyanomethyl)-2,5-difluoro-phenyl]-1-(methylamino)isoquinoline-4-sulfonamide] |
| 6.76 | N#CCc1cc(F)c(NS(=O)(=O)c2c[nH]c(=O)c3cc(Cl)ccc23)cc1F [Example 21, 7-chloro-N-[4-(cyanomethyl)-2,5-difluoro-phenyl]-1-keto-2H-isoquinoline-4-sulfonamide] |
| 6.35 | COc1nc(NS(=O)(=O)c2cccc3nc(Cl)ccc23)nc(OC)c1OC(F)F [Example 51, 2-chloro-N-[5-(difluoromethoxy)-4,6-dimethoxy-pyrimidin-2-yl]quinoline-5-sulfonamide] |
| 6.76 | COc1nc(NS(=O)(=O)c2cccc3nc(Cl)ccc23)nc(OC)c1CC(F)F [Example 8, 2-chloro-N-[5-(2,2-difluoroethyl)-4,6-dimethoxy-pyrimidin-2-yl]quinoline-5-sulfonamide] |
| 7.46 | COc1nc(OCC(F)F)c(F)cc1NS(=O)(=O)c1cc(=O)[nH]c2cc(Cl)ccc12 [Example 30, 7-chloro-N-[6-(2,2-difluoroethoxy)-5-fluoro-2-methoxy-3-pyridyl]-2-keto-1H-quinoline-4-sulfonamide] |
| 6.62 | CN(C)c1ccc2c(S(=O)(=O)Nc3cc(F)c(CC#N)cc3F)cccc2n1 [Example 32, N-[4-(cyanomethyl)-2,5-difluoro-phenyl]-2-(dimethylamino)quinoline-5-sulfonamide] |
| 6.55 | N#CCc1cc(F)c(NS(=O)(=O)c2cccc3ccccc23)cc1F [Example 1, N-(4-(cyanomethyl)-2,5-difluorophenyl)naphthalene-1-sulfonamide] |
| 7.52 | COc1nc(OCC(F)F)c(F)cc1NS(=O)(=O)c1c[nH]c(=O)c2nc(Cl)ccc12 [Example 29, 2-chloro-N-[6-(2,2-difluoroethoxy)-5-fluoro-2-methoxy-3-pyridyl]-8-keto-7H-1,7-naphthyridine-5-sulfonamide] |
| 7.51 | COc1nc(OCC(F)F)c(F)cc1NS(=O)(=O)c1cccc2c1CCC(C)O2 (stereo not drawn) [Example 16, N-[6-(2,2-difluoroethoxy)-5-fluoro-2-methoxy-3-pyridyl]-2-methyl-chromane-5-sulfonamide] |
